Entries after “also recorded” stand apart in the source; their conditions may differ.
Target: α-glucosidase
Experiment: In vitro α-glucosidase inhibitory assay
Type: biochemical
Set-up: key to IC50 (α-glucosidase inhibition), dash = inactive: (-) indicates inactive compounds
Conditions: for IC50 / IC50 (α-glucosidase inhibition), dash = inactive: sucrose substrate, 37 °C, 30 min, n = 3; for IC50: read-out: IC50 (α-glucosidase inhibition); for α-glucosidase inhibitory activity (in words): in vitro
Description: The assay of α-glucosidase inhibitory activity of compounds was adopted from. Briefly, 100 μL of DMSO and 100 μL of α-glucosidase enzyme (5 U/mL in 0.15 M HEPES buffer) were added to 100 μL substrate (0.1 M sucrose solution dissolved into 0.15 M HEPES buffer). The mixture was vortexed for 5 sec and then incubated at 37 °C for 30 min to allow for enzymatic reaction. After incubation, the reaction was stopped by heating at 100 °C for 10 min in a block incubator. The formation of glucose was determined by means of glucose oxidase method, using a BF-5S Biosensor (Oji Scientific Instruments, Hyogo, Japan). Mathematically, α-glucosidase inhibitory activity of each sample was calculated according to this equation: (Average value of control (Ac) − average value of the sample (As))/Ac × 100.
The IC50 values were calculated from plots of log concentration of inhibitor concentration against the percentage inhibition curves, using Microsoft Excel 2016. The data were expressed as mean ± standard deviation (SD) of at least three independent experiments (n = 3).

O=c1cc(-c2ccc(O)cc2)oc2cc(O)cc(O)c12 [Apigenin, reference compound]
IC50: 85.6 ± 0.01 µM

C[C@H]1O[C@@H](Oc2cc3oc(-c4ccc(O)cc4)cc(=O)c3c(O)c2[C@H]2C[C@@H](O)[C@@H](O)[C@@H](CO)O2)[C@H](O)[C@@H](O)[C@@H]1O [Compound 1, apigenin 6-C-(2-deoxy-β-D-galactopyranoside)-7-O-β-D-quinovopyranoside]
IC50: 613 µM

CC1OC(OC2C(c3c(O)cc4oc(-c5ccc(O)c(O)c5)cc(=O)c4c3O)OC(C)C(O)C2O)C(O)C(O)C1O [Compound 2, luteolin 6-C-α-L-rhamnopyranosyl-(1-2)-β-D-fucopyranoside]
α-glucosidase inhibitory activity (in words): highest inhibitory activity among all isolated flavone glycosides; also recorded: Potent inhibition | IC50: 328 µM

O=c1cc(-c2ccc(O)cc2)oc2cc(O)c(C3OC(CO)C(O)C(O)C3O)c(O)c12 [Compound 3, apigenin 6-C-β-D-galactopyranoside]
α-glucosidase inhibitory activity (in words): Potent inhibition | IC50: 439 µM

CC1OC(OC2C(c3c(O)cc4oc(-c5ccc(O)cc5)cc(=O)c4c3O)OC(C)C(O)C2O)C(O)C(O)C1O [Compound 4, apigenin 6-C-α-L-rhamnopyranosyl-(1-2)-β-L-fucopyranoside]
α-glucosidase inhibitory activity (in words): Potent inhibition | IC50: 390 µM

CC1OC(c2c(O)cc(OC3OC(CO)C(O)C3O)c(C(=O)CCc3ccc(O)cc3)c2O)C(O)C(O)C1OC1OC(CO)C(O)C(O)C1O (centres unmarked) [Compound 5, carambolaside M]
α-glucosidase inhibitory activity (in words): inactive | IC50 (α-glucosidase inhibition), dash = inactive: -

CC1OC(OC2C(Oc3cc(O)c(C4OC(C)C(O)C(O)C4O)c(O)c3C(=O)CCc3ccc(O)cc3)OC(CO)C2O)C(O)C(O)C1O (centres unmarked) [Compound 6, carambolaside Ia]
α-glucosidase inhibitory activity (in words): inactive | IC50 (α-glucosidase inhibition), dash = inactive: -

CC1OC(OC2C(Oc3cc(O)c(C4OC(C)C(O)C(OC5OC(C)C(O)C(O)C5O)C4OC(=O)C=Cc4ccccc4)c(O)c3C(=O)CCc3ccc(O)cc3)OC(CO)C2O)C(O)C(O)C1O (centres unmarked) [Compound 7, carambolaside J]
α-glucosidase inhibitory activity (in words): inactive | IC50 (α-glucosidase inhibition), dash = inactive: -

CC(=O)OC1C(C)OC(c2c(O)cc(OC3OC(CO)C(O)C3OC3OC(C)C(O)C(O)C3O)c(C(=O)CCc3ccc(O)cc3)c2O)C(OC(=O)C=Cc2ccccc2)C1OC1OC(C)C(O)C(O)C1O [Compound 8, phloretin 3′-C-(2-O-(E)-cinnamoyl-3-O-β-D-fucopyranosyl-4-O-acetyl)-β-D-fucopyranosyl-6′-O-β-D fucopyranosyl-(1/2)-α-L arabinofuranoside]
α-glucosidase inhibitory activity (in words): inactive | IC50 (α-glucosidase inhibition), dash = inactive: -

CC1OC(OC2C(Oc3cc(O)c(C4OC(C)C(O)C(O)C4OC(=O)C=Cc4ccccc4)c(O)c3C(=O)CCc3ccc(O)cc3)OC(CO)C2O)C(O)C(O)C1O (centres unmarked) [Compound 9, carambolaside I]
α-glucosidase inhibitory activity (in words): inactive | IC50 (α-glucosidase inhibition), dash = inactive: -

CC(=O)OC1C(C)OC(c2c(O)cc(OC3OC(CO)C(O)C3OC3OC(C)C(O)C(O)C3O)c(C(=O)CCc3ccc(O)cc3)c2O)C(OC(=O)C=Cc2ccc(O)cc2)C1OC1OC(C)C(O)C(O)C1O (centres unmarked) [Compound 11, Mix of 4″-O-acetyl-carambolaside P and 4″-O-acetyl-carambolaside O]
α-glucosidase inhibitory activity (in words): inactive | IC50 (α-glucosidase inhibition), dash = inactive: -

CC1OC(OC2C(Oc3cc(O)c(C4OC(C)C(O)C(O)C4OC(=O)C=Cc4ccc(O)cc4)c(O)c3C(=O)CCc3ccc(O)cc3)OC(CO)C2O)C(O)C(O)C1O (centres unmarked) [Compound 12, carambolaside Q]
α-glucosidase inhibitory activity (in words): relatively strong activity; also recorded: Potent inhibition | IC50: 323.6 ± 0.06 µM

O=c1cc(-c2ccc(O)c(O)c2)oc2cc(O)cc(O)c12 [Luteolin, reference compound]
IC50: 48.2 ± 0.02 µM

O=C(CCc1ccc(O)cc1)c1c(O)cc(O)cc1O [Phloretin, reference compound]
IC50: 110.4 ± 0.06 µM

O=C(CCc1ccc(O)cc1)c1c(O)cc(O)cc1O[C@@H]1O[C@H](CO)[C@@H](O)[C@H](O)[C@H]1O [Phloridzin, phloretin-2′-glucose, reference compound]
α-glucosidase inhibitory activity (in words): moderate inhibitory activity | IC50: 853.1 ± 0.02 µM

— paper PMC9413271, “Anti-Obesity Evaluation of Averrhoa carambola L. Leaves and Assessment of Its Polyphenols as Potential α-Glucosidase Inhibitors” (Molecules, 2022)
